Laboratory results: patent US6967254B2, “Substituted heterocyclic compounds and methods of use” (Amgen Inc., priority 2002, dated 2005)

system: LPS induced TNF release, THP1 cells; assay: Lipopolysaccharide-Activated THP1 Cell TNF Production Assay (LPS induced TNF release); type: cell-based; conditions: Homo sapiens, THP-1, bacterial LPS, 3 h at 37° C., secreted TNF-α read by ECL
Method: Lipopolysaccharide-Activated THP1 Cell TNF Production Assay
THP1 cells are resuspended in fresh THP1 media (RPMI 1640, 10% heat-inactivated FBS, 1×PGS, 1×NEAA, plus 30 μM βME) at a concentration of 1E6/mL. One hundred microliters of cells per well are plated in a polystyrene 96-well tissue culture. One microgram per mL of bacterial LPS is prepared in THP1 media and is transferred to the wells. Test compounds are dissolved in 100% DMSO and are serially diluted 3 fold in a polypropylene 96-well microtiter plate (drug plate). HI control and LO control wells contain only DMSO. One microliter of test compound from the drug plate followed by 10 μL of LPS are transferred to the cell plate. The treated cells are induced to synthesize and secrete TNF-α at 37° C. for 3 h. Forty microliters of conditioned media are transferred to a 96-well polypropylene plate containing 110 μL of ECL buffer (50 mM Tris-HCl pH 8.0, 100 mM NaCl, 0.05% Tween 20, 0.05% NaN3 and 1% FBS) supplemented with 0.44 nM MAB610 monoclonal Ab (R&D Systems), 0.34 nM ruthenylated AF210NA polyclonal Ab (R&D Systems) and 44 μg/mL sheep anti-mouse M280 Dynabeads (Dynal). After a 2 h incubation at room temperature with shaking, the reaction is read on the ECL M8 Instrument (IGEN Inc.). A low voltage is applied to the ruthenylated TNF-α: immune complexes, which in the presence of TPA (the active component in Origlo), results in a cyclical redox reaction generating light at […]. The amount of secreted TNF-α in the presence of compound compared with that in the presence of DMSO vehicle alone (HI control) is calculated using the formula: % control (POC)=(cpd−average LO)/(average HI−average LO)*100. Data (consisting of POC and inhibitor concentration in AM) is fitted to a 4-parameter equation (y=A+((B−A)/(1+((x/C)^D))), where A is the minimum y (POC) value, B is the maximum y (POC), C is the x (cpd concentration) at the point of inflection and D is the slope factor) using a Levenburg-Marquardt non-linear regression algorithm.

IC50, ≤ 20 µM:
O=c1[nH]n(C2CCNCC2)c(-c2ccncc2)c1-c1ccc(Cl)cc1 [Example 5, 4-(4-Chloro-phenyl)-1-piperidin-4-yl-5-pyridin-4-yl-1,2-dihydro-pyrazol-3-one]
CN1CCCC(n2[nH]c(=O)c(-c3ccc(Cl)cc3)c2-c2ccncc2)C1 (stereo not shown) [Example 11, 4-(4-Chlorophenyl)-1-(1-methyl-piperidin-3-yl)-5-pyridin-4-yl-1,2-dihydro-pyrazol-3-one]
O=c1[nH][nH]c(-c2ccncc2)c1-c1ccc(Cl)c(Cl)c1 [Example 15, 4-(3,4-Dichloro-phenyl)-5-pyridin-4-yl-1,2-dihydro-pyrazol-3-one]
O=c1[nH]n(C2CCCNC2)c(-c2ccncc2)c1-c1ccc(Cl)cc1 (stereo not shown) [Example 6, 4-(4-Chloro-phenyl)-1-piperidin-3-yl-5-pyridin-4-yl-1,2-dihydro-pyrazol-3-one]
CC(C)n1c(-c2ccncc2)c(-c2ccc(Cl)c(Cl)c2)c(=O)n1C [Example 17, 4-(3,4-Dichloro-phenyl)-1-isopropyl-2-methyl-5-pyridin-4-yl-1,2-dihydro-pyrazol-3-one]
CN1CCC(n2[nH]c(=O)c(-c3ccc(Cl)cc3)c2-c2ccncc2)CC1 [Example 10, 4-(4-Chlorophenyl)-1-(1-methyl-piperidin-4-yl)-5-pyridin-4-yl-1,2-dihydro-pyrazol-3-one]
Cn1c(=O)c(-c2ccc(Cl)c(Cl)c2)c(-c2ccncc2)n1CC1CCCCC1 [Example 19, 1-Cyclohexylmethyl-4-(3,4-dichloro-phenyl)-2-methyl-5-pyridin-4-yl-1,2-dihydro-pyrazol-3-one]
CC(C)n1[nH]c(=O)c(-c2ccc(Cl)c(Cl)c2)c1-c1ccncc1 [Example 16, 4-(3,4-Dichloro-phenyl)-1-isopropyl-5-pyridin-4-yl-1,2-dihydro-pyrazol-3-one]
CC(C)N1CCC(n2[nH]c(=O)c(-c3ccc(Cl)cc3)c2-c2ccncc2)CC1 [Example 12, 4-(4-Chlorophenyl)-1-(1-isopropyl-piperidin-4-yl)-5-pyridin-4-yl-1,2-dihydro-pyrazol-3-one]
NC1CCC(n2[nH]c(=O)c(-c3ccc(Cl)cc3)c2-c2ccncc2)CC1 (stereo not shown) [Example 20, 1-(4-Aminocyclohexyl)-4-(4-chlorophenyl)-5-pyridin-4-yl-1,2-dihydropyrazol-3-one]
